For 66 compounds, IC50 results are on record in patent publication US20250241905A1, “3-BETA-HSD1 INHIBITORS AND COMPOSITIONS AND USES THEREOF” (The Cleveland Clinic Foundation, priority 2022, published 2025).

Each structure is given as a SMILES string.

human 3β-HSD1, sequence (P14060 2-373 limits assumed): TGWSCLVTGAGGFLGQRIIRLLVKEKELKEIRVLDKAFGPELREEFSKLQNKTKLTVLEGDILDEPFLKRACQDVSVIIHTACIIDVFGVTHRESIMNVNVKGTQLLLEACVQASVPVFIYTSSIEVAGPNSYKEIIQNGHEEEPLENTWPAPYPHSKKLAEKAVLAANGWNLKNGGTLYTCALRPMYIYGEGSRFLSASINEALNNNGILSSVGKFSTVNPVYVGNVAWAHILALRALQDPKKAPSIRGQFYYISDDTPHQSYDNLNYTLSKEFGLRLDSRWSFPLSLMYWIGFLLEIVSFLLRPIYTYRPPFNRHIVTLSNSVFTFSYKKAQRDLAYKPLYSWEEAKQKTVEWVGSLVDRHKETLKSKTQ

This assay addresses human 3β-HSD1. The assay is described as follows: 3β-HSD1 inhibition, colorimetric NADH detection assay. The format is biochemical. The note with it: purified recombinant human 3β-HSD1, 50 μM DHEA, 2 mM NAD+, 1 hour, room temperature, duplicate 10-point CRC; read-out: IC50 (nM), in vitro NADH inhibition. The text has this:
Enzymatic turnover was quantified through NADH generation by purified, recombinant human 3β-HSD1 (expressed in Sf9 insect cells) in the presence of steroidal substrate trans-Dehydroandrosterone (DHEA) that was placed slightly above the experimentally determined Km and saturating amounts of co-factor Nicotinamide adenine dinucleotide (NAD^+). The sequence of recombinant human 3β-HSD1 used is […] […] […] […] […] […] […] (SEQ ID NO: 3). DHEA and NAD+ were enzymatically converted to androstenedione and NADH, respectively. Final NADH concentrations were spectroscopically quantified using a commercially available Amplite™ Colorimetric NADH Assay Kit which utilizes an NADH probe with an absorbance wavelength of 460 nm. Enzymatic assays with a final volume of 25 μL were ran in a 384-well, Greiner Bio-One UV-STAR® assay plate in 50 mM TRIS pH 8.0 assay buffer. […] Compound stocks at 10 mM in DMSO were serial diluted 5-fold in DMSO to generate an ECHO® compatible source plate. 125 nL of DMSO, Trilostane, or serial diluted compounds were then acoustically transferred into an empty UV-STAR® assay plate to give a final assay concentration of 0.5% v/v DMSO. The stamp volume and dilution scheme can be adjusted to accommodate compound potency. The assay can tolerate up to a 5% v/v DMSO final assay concentration. 15 μL of 1 μg purified 3β-HSD1 and 50 μM DHEA (final assay volume concentration) was dispensed per well into the stamped plate, centrifuged for 1 minute at 1000 RPM, covered, and allowed to incubate for 15 minutes at room temp. Enzymatic reactions were initiated upon the addition of 10 μL of NAD^+ diluted in assay buffer to give a final assay volume concentration of 2 mM. The assay plate was centrifuged for 1 minute at 1000 RPM, covered, and incubated at room temperature for 1 hour. 25 μL Amplite™ Colorimetric NADH Assay Kit detection solution (prepared as recommended) was added to all reaction wells, the plate centrifuged for 1 minute at 1000 RPM, covered, and incubated for 15 minutes. Final absorbance values (λ=460 nm) are spectroscopically determined on BioTek® Cytation5 or Synergy4 plate readers. […] From the background subtracted values, the non-inhibited enzyme signal (DMSO treated) was averaged from 32 control reactions. The percent inhibition value was calculated by: % inhibition=(1−((background subtracted inhibited reaction)/(background subtracted non-inhibited average)))*100. The resulting percent inhibition was then plotted in duplicate against corresponding concentration values. The resulting CRCs were fit with a four parameter, variable slope log (inhibitor) vs response equation where Y=bottomvalue+ (topvalue−bottomvalue)/(1+10^((log IC50−X)*Hillslope)) to determine the IC50 values for tested compounds.
As usually defined, the IC50 is the midpoint of a concentration-inhibition curve. For `CN(C)CC1(C)CCc2nc(-c3cc(F)c(O)c(F)c3)ccc2C1=O` (stereo not drawn) [Compound 60], the IC50 stood at 1170 nM.

As to `O=C(O)CC1CCc2nc(-c3cc(F)c(O)c(F)c3)ccc2C1=O` (stereo not drawn) [Compound 37], the IC50 amounted to 2840 nM.

Consider `NC1CCCc2nc(-c3cc(F)c(O)c(F)c3)ccc21` (stereo not drawn) [Compound 15], for which the concentration for half-maximal inhibition (IC50) worked out at 3440 nM.

With `COC1(C)CCCc2nc(-c3cc(F)c(O)c(F)c3)ccc21` (stereo not drawn) [Compound 79], the IC50 turned out to be 38 nM.

For `CC1(C)CCc2nc(-c3ccc(O)c(F)c3F)ccc2C1=O` [Compound 73], the IC50 turned out to be 122 nM.

Consider `O=C1CCOc2nc(-c3cc(F)c(O)c(F)c3)ccc21` [Compound 64], for which the concentration for half-maximal inhibition (IC50) was determined as 433 nM.

Regarding `COC1(c2ccccn2)CCCc2nc(-c3cc(F)c(O)c(F)c3)ccc21` (stereo not drawn) [Compound 93], the IC50 stood at 131 nM.

With `CC1(CC(F)(F)F)CCc2nc(-c3cc(F)c(O)c(F)c3)ccc2C1=O` (stereo not drawn) [Compound 89], the half-inhibitory concentration (IC50) is 188 nM.

Consider `CC1(O)CCCc2nc(-c3cc(F)c(O)c(F)c3)ccc21` (stereo not drawn) [Compound 14], for which the IC50 was determined as 339 nM.

In the case of `O=C1c2ccc(-c3cc(F)c(O)c(F)c3)nc2CC[C@H]1Cc1ccccc1` [Compound 48], the concentration for half-maximal inhibition (IC50) was determined as 19 nM.

As for `CC1(C)CCc2nc(-c3cc(F)c(O)c(C#N)c3)ccc2C1=O` [Compound 67], the IC50 stood at 1880 nM.

For the compound `O=C1CCCCc2nc(-c3cc(F)c(O)c(F)c3)ccc21` [Compound 32], the 50% inhibitory concentration (IC50) was 90 nM.

Turning to `CC1(C)CCc2nc(-c3cc(F)c(O)c(F)c3)ccc2C1(O)c1ccccc1` (stereo not drawn) [Compound 19], the half-maximal inhibitory concentration (IC50) is 314 nM.

For the compound `CC1(C)CCc2nc(-c3cnc(O)c(F)c3)ccc2C1=O` [Compound 65], the IC50 was over 20000 nM.

Turning to `CC1(C(F)(F)C(F)(F)F)CCc2nc(-c3cc(F)c(O)c(F)c3)ccc2C1=O` (stereo not drawn) [Compound 88], the 50% inhibitory concentration (IC50) is 78 nM.

As to `CC1(C)CCc2nc(-c3cc(F)c(O)c(F)c3)ccc2C1(O)Cc1ccccc1` (stereo not drawn) [Compound 17], the IC50 was 227 nM.

`COC1(c2cccnc2)CCCc2nc(-c3cc(F)c(O)c(F)c3)ccc21` (stereo not drawn) [Compound 91]: the half-maximal inhibitory concentration (IC50) came out at 25 nM.

For the compound `CC1(C2(O)COC2)CCc2nc(-c3cc(F)c(O)c(F)c3)ccc2C1=O` (stereo not drawn) [Compound 86], the IC50 amounted to 1420 nM.

Regarding `Cc1cc(-c2ccc3c(n2)CCC(C)(C)C3=O)cc(Cl)c1O` [Compound 78], the IC50 was 2170 nM.

Turning to `Cc1cc(-c2cc(F)c(O)c(F)c2)nc2c1C(=O)CCC2` [Compound 31], the half-inhibitory concentration (IC50) turned out to be 991 nM.

As to `CC1(C)CCc2nc(-c3cc(F)c(O)cc3F)ncc2C1=O` [Compound 85], the IC50 is 1540 nM.

Consider `CC1(C)CCc2nc(-c3ccc(O)c(Cl)c3)ccc2C1=O` [Compound 49], for which the IC50 stood at 26 nM.

As for `CC1(C)CC(=O)c2ccc(-c3cc(F)c(O)c(F)c3)nc2C1` [Compound 42], the half-maximal inhibitory concentration (IC50) was found to be 287 nM.

`Cc1cc(-c2ccc3c(n2)CCC(C)(C)C3=O)cc(F)c1O` [Compound 71]: the concentration for half-maximal inhibition (IC50) amounted to 67 nM.

As to `CCc1cc(-c2cc(F)c(O)c(F)c2)nc2c1C(=O)CCC2` [Compound 44], the IC50 was found to be 1280 nM.

For the compound `CC1(O)CCc2nc(-c3cc(F)c(O)c(F)c3)ccc2C1=O` (stereo not drawn) [Compound 34], the half-maximal inhibitory concentration (IC50) is 446 nM.

`COC1CCCc2nc(-c3cc(F)c(O)c(F)c3)ccc21` (stereo not drawn) [Compound 53]: the concentration for half-maximal inhibition (IC50) was found to be 204 nM.

In the case of `CC1(C#N)CCc2nc(-c3cc(F)c(O)c(F)c3)ccc2C1=O` (stereo not drawn) [Compound 35], the concentration for half-maximal inhibition (IC50) was determined as 92 nM.

As to `COCCN1CC(C)(C)C(=O)c2ccc(-c3cc(F)c(O)c(F)c3)nc21` [Compound 83], the IC50 is 556 nM.

`COC1(c2ncco2)CCCc2nc(-c3cc(F)c(O)c(F)c3)ccc21` (stereo not drawn) [Compound 95]: the concentration for half-maximal inhibition (IC50) worked out at 100 nM.

Consider `Oc1c(F)cc(-c2ccc3c(n2)CCCC3O)cc1F` (stereo not drawn) [Compound 13], for which the IC50 stood at 748 nM.

For `CC1(C)CCc2nc(-c3ccc(O)c(F)c3)ccc2C1=O` [Compound 6, 2-(3-fluoro-4-hydroxyphenyl)-6,6-dimethyl-7,8-dihydroquinolin-5(6H)-one], the IC50 is 51 nM.

On to `O=C1CCCc2nc(-c3c(F)c(F)c(O)c(F)c3F)ccc21` [Compound 28], for which the half-inhibitory concentration (IC50) was found to be 3000 nM.

Consider `O=C1CCc2nc(-c3cc(F)c(O)c(F)c3)ccc21` [Compound 22], for which the IC50 amounted to 297 nM.

On to `N#Cc1cc(-c2ccc3c(n2)CCCC3=O)ccc1O` [Compound 3, 2-hydroxy-5-(5-oxo-5,6,7,8-tetrahydroquinolin-2-yl)benzonitrile], for which the IC50 is 651 nM.

For `O=C1c2ccc(-c3cc(F)c(O)c(F)c3)nc2CCC12CCC2` [Compound 30], the concentration for half-maximal inhibition (IC50) was found to be 303 nM.

On to `Oc1c(F)cc(-c2ccc3c(n2)CCCC3OC2COC2)cc1F` (stereo not drawn) [Compound 77], for which the IC50 amounted to 1070 nM.

Turning to `CC1(C)CCc2nc(-c3cc(F)c(O)c(F)c3F)ccc2C1=O` [Compound 80], the IC50 was determined as 152 nM.

`CC1(C)CCCc2nc(-c3cc(F)c(O)c(F)c3)ccc2C1=O` [Compound 33]: the IC50 stood at 292 nM.

As for `CN1CC(C)(C)C(=O)c2ccc(-c3cc(F)c(O)c(F)c3)nc21` [Compound 68], the IC50 turned out to be 308 nM.

With `O=C1c2ccc(-c3cc(F)c(O)c(F)c3)nc2CCC12COCOC2` [Compound 62], the IC50 came out at 541 nM.

With `CC1(C)CNc2nc(-c3cc(F)c(O)c(F)c3)ccc2C1=O` [Compound 69], the half-maximal inhibitory concentration (IC50) was 470 nM.

Take `O=C1c2ccc(-c3cc(F)c(O)c(F)c3)nc2CCC1Cc1ccncc1` (stereo not drawn) [Compound 40]: the concentration for half-maximal inhibition (IC50) was 212 nM.

Turning to `CC1(C)CCc2nc(-c3cc(F)c(O)c(F)c3)ncc2C1=O` [Compound 66], the IC50 worked out at 414 nM.

In the case of `Oc1c(F)cc(-c2ccc3c(n2)CCCC3(O)c2ccccn2)cc1F` (stereo not drawn) [Compound 94], the IC50 was 238 nM.

In the case of `C[C@]1(Cc2ccccc2)CCc2nc(-c3cc(F)c(O)c(F)c3)ccc2C1=O` [Compound 57], the IC50 turned out to be 78 nM.

Regarding `Oc1c(F)cc(-c2ccc3c(n2)CCCC3(O)c2cccnc2)cc1F` (stereo not drawn) [Compound 92], the 50% inhibitory concentration (IC50) stood at 68 nM.

As to `O=C1c2ccc(-c3cc(F)c(O)c(F)c3)nc2CCC1CC1CC1` (stereo not drawn) [Compound 29], the IC50 is 130 nM.

`CC1(C)CCc2nc(-c3ccc(O)c(C#N)c3)ccc2C1=O` [Compound 4, 5-(6,6-dimethyl-5-oxo-5,6,7,8-tetrahydroquinolin-2-yl)-2-hydroxybenzonitrile]: the IC50 is 1860 nM.

On to `O=C1CCCc2nc(-c3cnc(O)c(F)c3)ccc21` [Compound 21], for which the concentration for half-maximal inhibition (IC50) stood at 6100 nM.

Turning to `CC1(C)CCc2nc(-c3ccc(O)c(F)c3)ccc2C1(C)O` (stereo not drawn) [Compound 18], the half-inhibitory concentration (IC50) was 504 nM.

Regarding `CC[C@]1(C)CCc2nc(-c3cc(F)c(O)c(F)c3)ccc2C1=O` [Compound 56], the IC50 came out at 110 nM.

Turning to `CC(C)c1cc(-c2cc(F)c(O)c(F)c2)nc2c1C(=O)CCC2` [Compound 45], the IC50 worked out at 8610 nM.

Turning to `CC1(F)CCc2nc(-c3cc(F)c(O)c(F)c3)ccc2C1=O` (stereo not drawn) [Compound 46], the IC50 was found to be 42 nM.

For `O=C1c2ccc(-c3cc(F)c(O)c(F)c3)nc2CC[C@@H]1Cc1ccccc1` [Compound 47], the half-maximal inhibitory concentration (IC50) stood at 177 nM.

In the case of `CCC1(O)CCCc2nc(-c3cc(F)c(O)c(F)c3)ccc21` (stereo not drawn) [Compound 43], the half-maximal inhibitory concentration (IC50) worked out at 365 nM.

As for `O=C1CCCc2nc(-c3cc(F)c(O)c(F)c3)cnc21` [Compound 70], the half-inhibitory concentration (IC50) worked out at 7640 nM.

For the compound `CC1(CO)CCc2nc(-c3cc(F)c(O)c(F)c3)ccc2C1=O` (stereo not drawn) [Compound 52], the 50% inhibitory concentration (IC50) was determined as 222 nM.

As for `O=C1CCCc2nc(-c3cc(F)c(O)c(Cl)c3)ccc21` [Compound 23], the 50% inhibitory concentration (IC50) worked out at 49 nM.

As for `CC1(C)CCc2nc(-c3ccc(O)c(F)c3)ncc2C1=O` [Compound 84], the IC50 is 288 nM.

In the case of `Cc1cc(-c2ccc3c(n2)CCC(C)(C)C3=O)c(F)c(F)c1O` [Compound 81], the IC50 is 326 nM.

With `O=C1c2ccc(-c3cc(F)c(O)cc3F)nc2CCC12CC2` [Compound 61], the IC50 worked out at 127 nM.

Regarding `O=C1CCCc2nc(-c3cc(F)c(O)cc3F)ccc21` [Compound 24], the IC50 turned out to be 83 nM.

`O=C1c2ccc(-c3cc(F)c(O)c(F)c3)nc2CCC1Cc1ccccn1` (stereo not drawn) [Compound 38]: the IC50 came to 272 nM.

As to `CC1(C(F)(F)F)CCc2nc(-c3cc(F)c(O)c(F)c3)ccc2C1=O` (stereo not drawn) [Compound 36], the IC50 was found to be 59 nM.

`O=C1c2ccc(-c3cc(F)c(O)c(F)c3)nc2CCC1F` (stereo not drawn) [Compound 51]: the half-maximal inhibitory concentration (IC50) is 149 nM.
